Results reported in US20200085776A1, “Methods of Reducing C-Reactive Protein and/or Treating Cardiovascular Disease” (CARDAX, INC., priority 2018, published 2020).

System: C-reactive protein (CRP)
Experiment: CRP (hs-CRP) in blood, CHASE clinical study
Assay type: in vivo, human
Conditions: Group Z 48 mg BID; for CRP Max / CRP Mean (SD) / CRP Median / CRP Min: V6 Week 12
Source text: This is a two-part study comprising Part I and Part II. Following screening, Part I consists of a randomized, double-blind, placebo controlled dosing period of up to 12 weeks. The study shall be conducted at one or more study sites in Hawaii. Approximately 360 subjects qualified after completion of screening procedures shall be randomized in a 1:1:1 ratio to one of three treatment groups, per Table 1.
The Part I 12-week double-blind dosing period commences with V2, including randomization and first dose of study product, and continues with study visits at Week 1-2 (V3), Week 4 (V4), Week 8 (V5), and Week 12 (V6). V6 procedures will conclude Part I.
Blood shall be obtained at each visit for CRP. The screening specimen shall be processed at the local lab and reported to the study staff for eligibility determination; CRP samples at V7 and V8 may also be processed locally and reported directly to study staff. Samples for CRP from V2 through V6 may be batched, processed, and reported as specified in the Laboratory Manual.
At each these visits, blood was obtained for measurement of CRP, among other parameters. Table 7A provides a summary of the CRP measurements (mg/L) at each visit and Table 7B provides a summary of the differences of CRP levels between V2 and V6.

[1] = subjects with DM2, hypertension and hyperlipidemia but not CAD
[2] = subjects with Diabetes Mellitus Type II
[3] = subjects with baseline level greater than 2.0
[4] = baseline to Week 12, all subjects
[5] = baseline to Week 12, subjects not taking a hypertension agent
[6] = baseline to Week 12, subjects not taking any cardiac therapeutic agent
[7] = baseline to Week 12, subjects not taking statins
[8] = baseline to Week 12, subjects taking an anti-diabetic agent
[9] = baseline to Week 12, subjects with CAD
[10] = baseline to Week 12, subjects with DM2, hypertension and hyperlipidemia but not CAD
[11] = baseline to Week 12, subjects with Diabetes Mellitus Type II
[12] = baseline to Week 12, subjects with baseline level greater than 2.0
[13] = baseline to Week 12, subjects with hyperlipidemia

Structure (SMILES): CC1=C(/C=C/C(C)=C/C=C/C(C)=C/C=C/C=C(C)/C=C/C=C(C)/C=C/C2=C(C)C(=O)C(O)CC2(C)C)C(C)(C)CC(O)C1=O (stereo not drawn) [Astaxanthin, astaxanthin]
- CRP Max [1]: 6.14 mg/L
- CRP Mean (SD) [1]: 3.38 (1.57) mg/L
- CRP Median [1]: 2.58 mg/L
- CRP Min [1]: 2.48 mg/L
- CRP Max [2]: 8.84 mg/L
- CRP Mean (SD) [2]: 3.77 (2.70) mg/L
- CRP Median [2]: 2.56 mg/L
- CRP Min [2]: 0.61 mg/L
- CRP Max [3]: 8.84 mg/L
- CRP Mean (SD) [3]: 3.88 (2.42) mg/L
- CRP Median [3]: 2.89 mg/L
- CRP Min [3]: 0.61 mg/L
- CRP Max (subjects with hyperlipidemia): 6.14 mg/L
- CRP Mean (SD) (subjects with hyperlipidemia): 2.54 (1.29) mg/L
- CRP Median (subjects with hyperlipidemia): 2.31 mg/L
- CRP Min (subjects with hyperlipidemia): 0.61 mg/L
- CRP V2 to V6 % Change Max [4]: 81.89%
- CRP V2 to V6 % Change Mean [4]: −8.48%
- CRP V2 to V6 % Change Median [4]: −27.9%
- CRP V2 to V6 % Change Min [4]: −90.9%
- CRP V2 to V6 Change Max [4]: 2.58 mg/L
- CRP V2 to V6 Change Mean [4]: -0.87 mg/L
- CRP V2 to V6 Change Median [4]: -0.65 mg/L
- CRP V2 to V6 Change Min [4]: -6.07 mg/L
- CRP V2 to V6 % Change Max [5]: −4.25%
- CRP V2 to V6 % Change Mean (SD) [5]: −30.8 (26.09) %
- CRP V2 to V6 % Change Median [5]: −31.8%
- CRP V2 to V6 % Change Min [5]: −56.4%
- CRP V2 to V6 Change Max [5]: -0.11 mg/L
- CRP V2 to V6 Change Mean (SD) [5]: −1.58 (1.32) mg/L
- CRP V2 to V6 Change Median [5]: -2.00 mg/L
- CRP V2 to V6 Change Min [5]: -2.64 mg/L
- CRP V2 to V6 % Change Max [6]: 71.27%
- CRP V2 to V6 % Change Mean (SD) [6]: −23.7 (41.82) %
- CRP V2 to V6 % Change Median [6]: −31.5%
- CRP V2 to V6 % Change Min [6]: −90.9%
- CRP V2 to V6 Change Max [6]: 1.29 mg/L
- CRP V2 to V6 Change Mean (SD) [6]: −1.42 (2.01) mg/L
- CRP V2 to V6 Change Median [6]: -1.24 mg/L
- CRP V2 to V6 Change Min [6]: -6.07 mg/L
- CRP V2 to V6 % Change Max [7]: 19.13%
- CRP V2 to V6 % Change Mean (SD) [7]: −14.9 (28.11) %
- CRP V2 to V6 % Change Median [7]: −17.6%
- CRP V2 to V6 % Change Min [7]: −56.4%
- CRP V2 to V6 Change Max [7]: 0.80 mg/L
- CRP V2 to V6 Change Mean (SD) [7]: −0.81 (1.42) mg/L
- CRP V2 to V6 Change Median [7]: -0.71 mg/L
- CRP V2 to V6 Change Min [7]: -2.64 mg/L
- CRP V2 to V6 % Change** Max [8]: 81.89%
- CRP V2 to V6 % Change** Mean (SD) [8]: −16.9 (49.24) %
- CRP V2 to V6 % Change** Median [8]: −30.7%
- CRP V2 to V6 % Change** Min [8]: −90.9%
- CRP V2 to V6 Change Max [8]: 2.58 mg/L
- CRP V2 to V6 Change Mean (SD) [8]: −1.18 (2.36) mg/L
- CRP V2 to V6 Change Median [8]: -1.14 mg/L
- CRP V2 to V6 Change Min [8]: -6.07 mg/L
- CRP V2 to V6 % Change Max [9]: 81.89%
- CRP V2 to V6 % Change Mean (SD) [9]: −28.8 (65.35) %
- CRP V2 to V6 % Change Median [9]: −39.7%
- CRP V2 to V6 % Change Min [9]: −90.9%
- CRP V2 to V6 Change Max [9]: 1.04 mg/L
- CRP V2 to V6 Change Mean (SD) [9]: −1.91 (2.67) mg/L
- CRP V2 to V6 Change Median [9]: -1.24 mg/L
- CRP V2 to V6 Change Min [9]: -6.07 mg/L
- CRP V2 to V6 % Change Max [10]: −4.25%
- CRP V2 to V6 % Change Mean (SD) [10]: −32.6 (18.99) %
- CRP V2 to V6 % Change Median [10]: −30.7%
- CRP V2 to V6 % Change Min [10]: −50.4%
- CRP V2 to V6 Change Max [10]: -0.11 mg/L
- CRP V2 to V6 Change Mean (SD) [10]: −1.87 (1.24) mg/L
- CRP V2 to V6 Change Median [10]: -2.37 mg/L
- CRP V2 to V6 Change Min [10]: -3.24 mg/L
- CRP V2 to V6 % Change Max [11]: 81.89%
- CRP V2 to V6 % Change Mean (SD) [11]: −14.7 (47.59) %
- CRP V2 to V6 % Change Median [11]: −29.3%
- CRP V2 to V6 % Change Min [11]: −90.9%
- CRP V2 to V6 Change Max [11]: 2.58 mg/L
- CRP V2 to V6 Change Mean (SD) [11]: −1.01 (2.32) mg/L
- CRP V2 to V6 Change Median [11]: -0.90 mg/L
- CRP V2 to V6 Change Min [11]: -6.07 mg/L
- CRP V2 to V6 % Change Max [12]: 48.77%
- CRP V2 to V6 % Change Mean (SD) [12]: −24.8 (35.03) %
- CRP V2 to V6 % Change Median [12]: −31.1%
- CRP V2 to V6 % Change Min [12]: −90.9%
- CRP V2 to V6 Change Max [12]: 2.58 mg/L
- CRP V2 to V6 Change Mean (SD) [12]: −1.37 (2.11) mg/L
- CRP V2 to V6 Change Median [12]: -1.54 mg/L
- CRP V2 to V6 Change Min [12]: -6.07 mg/L
- CRP V2 to V6 % Change Max [13]: 81.89%
- CRP V2 to V6 % Change Mean (SD) [13]: −13.6 (49.58) %
- CRP V2 to V6 % Change Median [13]: −30.7%
- CRP V2 to V6 % Change Min [13]: −90.9%
- CRP V2 to V6 Change Max [13]: 1.29 mg/L
- CRP V2 to V6 Change Mean (SD) [13]: −1.24 (1.95) mg/L
- CRP V2 to V6 Change Median [13]: -1.14 mg/L
- CRP V2 to V6 Change Min [13]: -6.07 mg/L
